Values quoted from earlier work in patent US20260258132A1, “TREATMENT OF LUNG CANCER WITH ANTI-PD-1 AND CHEMOTHERAPY” (BeOne Medicines I GmbH, priority 2023, published 2026).

System: ES-SCLC
Settings: cited from earlier work; for RMST analysis: difference in OS in prior studies: versus placebo plus chemotherapy

Molecule | median OS in the previous study (first-line treatment for ES-SCLC) | OS HR in the previous study (pembrolizumab arm versus placebo arm, 95% CI 0.64-0.98) | RMST analysis: difference in OS in prior studies
pembrolizumab plus chemotherapy: pembrolizumab (humanized IgG4 anti-PD-1 antibody) plus chemotherapy, first-line ES-SCLC, previous study | 10.8 months | 0.80 | 1.2 month
adebrelimab plus chemotherapy: adebrelimab plus chemotherapy, prior study compared by RMST of OS (antibody, chains of the INN, looked up, V domains shown, plus chemotherapy, adebrelimab plus chemotherapy, prior study compared by RMST of OS) VH: QVQLVQSGAEVKKPGASVKVSCKASGYTFTSYWMHWVRQAPGQGLEWMGRIGPNSGFTSYNEKFKNRVTMTRDTSTSTVYMELSSLRSEDTAVYYCARGGSSYDYFDYWGQGTTVTVSS VL: DIVLTQSPASLAVSPGQRATITCRASESVSIHGTHLMHWYQQKPGQPPKLLIYAASNLESGVPARFSGSGSGTDFTLTINPVEAEDTANYYCQQSFEDPLTFGQGTKLEIK | – | – | 2.3 month
